# Patent US20240343727A1, “PYRIDAZINONE OR PYRIDINONE COMPOUNDS, PREPARATION METHODS AND USES THEREOF” (InventisBio Co., Ltd., priority 2021, published 2024)
# pIC50: −log10 of the molar value.
# Target: T1, PARP7 (Homo sapiens, UniProt Q7Z3E1)
# T1 sequence (Q7Z3E1 1-657): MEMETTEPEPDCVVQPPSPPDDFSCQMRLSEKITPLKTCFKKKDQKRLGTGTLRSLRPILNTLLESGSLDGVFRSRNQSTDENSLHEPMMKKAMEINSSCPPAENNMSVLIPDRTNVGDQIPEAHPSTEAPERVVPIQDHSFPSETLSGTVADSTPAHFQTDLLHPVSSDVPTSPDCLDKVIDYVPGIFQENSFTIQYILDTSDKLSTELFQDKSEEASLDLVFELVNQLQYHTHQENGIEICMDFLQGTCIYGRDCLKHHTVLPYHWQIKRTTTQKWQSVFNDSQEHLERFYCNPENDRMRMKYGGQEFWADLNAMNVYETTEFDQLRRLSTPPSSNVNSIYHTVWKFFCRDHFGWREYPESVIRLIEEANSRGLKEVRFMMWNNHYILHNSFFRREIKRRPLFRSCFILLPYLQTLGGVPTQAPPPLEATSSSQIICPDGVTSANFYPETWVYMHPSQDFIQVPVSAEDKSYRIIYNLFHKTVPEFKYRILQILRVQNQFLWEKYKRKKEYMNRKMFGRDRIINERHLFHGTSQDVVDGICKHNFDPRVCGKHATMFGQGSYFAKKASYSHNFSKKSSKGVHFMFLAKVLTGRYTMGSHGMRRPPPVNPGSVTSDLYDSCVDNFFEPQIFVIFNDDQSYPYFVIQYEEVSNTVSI
# Assay: PARP7 TR-FRET assay (binding, displacement of biotinylated Probe A)
# Conditions: 6 nM PARP7, 2 nM Probe A, 25° C., 30 min
# How it was run: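 Compound displacement of biotinylated Probe A (2 nM) from PARP7 (6 nM) measured by TR-FRET in HEPES pH 8.0 buffer, 30 min at 25° C. Detection used ULight-anti 6xHis (4 nM) plus Eu-streptavidin (0.25 nM) for 30 min, reading the 665/615 nm ratio. % inhibition was taken against DMSO and no-enzyme wells, and IC50 from a Hill fit.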
row,Compound,pIC50
1,O=C(c1cccc(Oc2n[nH]c(=O)c(C(F)(F)F)c2N2CC3(CCC3)C2)c1)N1CCN(c2ncc(Cl)cn2)CC1 [Compound 199],> 7.00
2,"O=C(CC1CN(c2cc(C(F)(F)F)c(=O)[nH]n2)c2cc(C(=O)N3CCC3)ccc2O1)N1CCN(c2ncc(C(F)(F)F)cn2)CC1 (single isomer, unassigned) [Compound 337]",> 7.00
3,Cc1c(Oc2cccc(C(=O)N3CCN(c4ncc(C(F)(F)F)cn4)CC3)c2)n[nH]c(=O)c1C(F)(F)F [Compound 15],> 7.00
4,C[C@@H]1CN(C(=O)c2cccc(Oc3n[nH]c(=O)c(C(F)(F)F)c3N3CC4(CCO4)C3)c2)CCN1c1ncc(C(F)(F)F)cn1 [Compound 252],> 7.00
5,O=C(c1cccc(Oc2cc(C(F)(F)F)c(=O)[nH]n2)c1)N1CCN(c2ncc(C(F)(F)F)cn2)CC1 [Compound 16],> 7.00
6,"O=C(CC1CN(c2cc(C(F)(F)F)c(=O)[nH]n2)c2cc(F)ccc2O1)N1CCN(c2cnc(C(F)(F)F)cn2)CC1 (single isomer, unassigned) [Compound 291]",> 7.00
7,Cc1c(Oc2ccnc(C(=O)N3CCN(c4ncc(C(F)(F)F)cn4)CC3)c2)n[nH]c(=O)c1C(F)(F)F [Compound 21],> 7.00
8,CCOC1CN(c2c(Oc3ccnc(C(=O)N4CCN(c5ncc(C(F)(F)F)cn5)[C@H](C)C4)c3)n[nH]c(=O)c2C(F)(F)F)C1 [Compound 339],> 7.00

# Continued, values first:
row,pIC50,Compound
1,> 7.00,O=C(CC[C@@H]1CCCN1c1cc(C(F)(F)F)c(=O)[nH]n1)N1CCN(c2ncc(C(F)(F)F)cn2)CC1 [Compound 86]
2,> 7.00,"O=C(COC1CCOc2c1n[nH]c(=O)c2Cl)N1CCN(c2ncc(C(F)(F)F)cn2)CC1 (single isomer, unassigned) [Compound 54]"
3,> 7.00,Cc1c(Oc2ccc(Cl)c(C(=O)N3CCN(c4ncc(C(F)(F)F)cn4)CC3)c2)n[nH]c(=O)c1C(F)(F)F [Compound 26]
4,> 7.00,"O=C(CC1CN(c2n[nH]c(=O)c3cc(F)ccc23)CCO1)N1CCN(c2ncc(C(F)(F)F)cn2)CC1 (single isomer, unassigned) [Compound 50]"
5,> 7.00,"O=C(COC1CCOc2c1n[nH]c(=O)c2Cl)N1CCN(c2ncc(C(F)(F)F)cn2)CC1 (single isomer, unassigned) [Compound 53]"
6,> 7.00,O=C(C[C@@H]1CN(c2cc(C(F)(F)F)c(=O)[nH]n2)c2ccccc2O1)N1CCN(c2ncc(C(F)(F)F)cn2)CC1 [Compound 34]
7,6.00 to 7.00,Cc1c(N2CCOc3ccc(C(=O)N4CCN(c5ncc(C(F)(F)F)cn5)CC4)cc32)n[nH]c(=O)c1C(F)(F)F [Compound 78]
8,> 7.00,"Cc1c(N2CCOC(CC(=O)N3CCN(c4ncc(C(F)(F)F)cn4)CC3)C2)n[nH]c(=O)c1C(F)(F)F (single isomer, unassigned) [Compound 39]"
9,> 7.00,"O=C(CC1CN(c2n[nH]c(=O)c3ccccc23)CCO1)N1CCN(c2ncc(C(F)(F)F)cn2)CC1 (single isomer, unassigned) [Compound 92]"

# System: tumor
# Assay: not given
# Conditions: according to the description in clinicaltrials.gov (NCT04053673); cited from earlier work
row,Compound,tumor growth in animal studies
1,C[C@@H](COCCC(=O)N1CCN(c2ncc(C(F)(F)F)cn2)CC1)Nc1cn[nH]c(=O)c1C(F)(F)F [RBN2397],inhibit tumor growth

# System: NCI-H1373 cells
# Assay: Inhibition of cancer cell growth in NCI-H1373 cells (Cell-titer Glo, 6 days)
# Assay type: cell-based
# Conditions: Homo sapiens, NCI-H1373, 144 h, read-out: H1373 Cell Proliferation IC50
# Description: Biological Assay Example B: Inhibition of cancer cell growth in NCI-H1373 cells by PARP7 inhibitors
# NCI-H1373 cells were cultured in RPMI 1640 medium supplemented with 10% fetal bovine serum, 100 U/mL penicillin and 100 ug/mL streptomycin in a 37° C., 5% CO2 incubator. Fifteen hundred cells were seeded into each well of 96-well plate in RPMI1640 medium containing 10% fetal bovine serum and incubated overnight. Serial diluted compounds for each well were added at a final DMSO concentration of 0.5% and a day zero plate was collected for analysis. Compounds were incubated with the cells for 6 days. Cell growth was assessed using Cell-titer Glo reagent (Promega #G^7572). The luminescence signal was collected on Tecan Spark plate reader. Cell growth is determined by correcting for the cell count on day zero. Inhibition rate is calculated with the formula of % inhibition=100*(DMSO control-compounds)/(DMSO control-Blank). Cell growth inhibition IC50 is calculated with the equation of Y-Bottom+ (Top-Bottom)/(1+10^((LogIC50−X) *Hill Slope)).
row,Compound,pIC50
1,O=C(c1cccc(Oc2n[nH]c(=O)c(C(F)(F)F)c2N2CC3(CCC3)C2)c1)N1CCN(c2ncc(Cl)cn2)CC1 [Compound 199],> 7.00
2,Cc1c(Oc2cccc(C(=O)N3CCN(c4ncc(C(F)(F)F)cn4)CC3)c2)n[nH]c(=O)c1C(F)(F)F [Compound 15],6.00 to 7.00
3,C[C@@H]1CN(C(=O)c2cccc(Oc3n[nH]c(=O)c(C(F)(F)F)c3N3CC4(CCO4)C3)c2)CCN1c1ncc(C(F)(F)F)cn1 [Compound 252],> 7.00
4,O=C(c1cccc(Oc2cc(C(F)(F)F)c(=O)[nH]n2)c1)N1CCN(c2ncc(C(F)(F)F)cn2)CC1 [Compound 16],< 6.00
5,"O=C(CC1CN(c2cc(C(F)(F)F)c(=O)[nH]n2)c2cc(F)ccc2O1)N1CCN(c2cnc(C(F)(F)F)cn2)CC1 (single isomer, unassigned) [Compound 291]",6.00 to 7.00
6,Cc1c(Oc2ccnc(C(=O)N3CCN(c4ncc(C(F)(F)F)cn4)CC3)c2)n[nH]c(=O)c1C(F)(F)F [Compound 21],6.00 to 7.00
7,CCOC1CN(c2c(Oc3ccnc(C(=O)N4CCN(c5ncc(C(F)(F)F)cn5)[C@H](C)C4)c3)n[nH]c(=O)c2C(F)(F)F)C1 [Compound 339],> 7.00

# More lines, now with the values ahead:
row,pIC50,Compound
1,> 7.00,O=C(CC[C@@H]1CCCN1c1cc(C(F)(F)F)c(=O)[nH]n1)N1CCN(c2ncc(C(F)(F)F)cn2)CC1 [Compound 86]
2,< 6.00,Cc1c(Oc2ccc(Cl)c(C(=O)N3CCN(c4ncc(C(F)(F)F)cn4)CC3)c2)n[nH]c(=O)c1C(F)(F)F [Compound 26]
3,6.00 to 7.00,"O=C(CC1CN(c2n[nH]c(=O)c3cc(F)ccc23)CCO1)N1CCN(c2ncc(C(F)(F)F)cn2)CC1 (single isomer, unassigned) [Compound 50]"
4,< 6.00,"O=C(COC1CCOc2c1n[nH]c(=O)c2Cl)N1CCN(c2ncc(C(F)(F)F)cn2)CC1 (single isomer, unassigned) [Compound 53]"
5,> 7.00,O=C(C[C@@H]1CN(c2cc(C(F)(F)F)c(=O)[nH]n2)c2ccccc2O1)N1CCN(c2ncc(C(F)(F)F)cn2)CC1 [Compound 34]
6,6.00 to 7.00,Cc1c(N2CCOc3ccc(C(=O)N4CCN(c5ncc(C(F)(F)F)cn5)CC4)cc32)n[nH]c(=O)c1C(F)(F)F [Compound 78]
7,6.00 to 7.00,"Cc1c(N2CCOC(CC(=O)N3CCN(c4ncc(C(F)(F)F)cn4)CC3)C2)n[nH]c(=O)c1C(F)(F)F (single isomer, unassigned) [Compound 39]"
8,6.00 to 7.00,"O=C(CC1CN(c2n[nH]c(=O)c3ccccc23)CCO1)N1CCN(c2ncc(C(F)(F)F)cn2)CC1 (single isomer, unassigned) [Compound 92]"

# Same assay, conditions: read-out: H1373 Cell Proliferation IC50
row,pIC50,Compound
1,< 6.00,"O=C(CC1CN(c2cc(C(F)(F)F)c(=O)[nH]n2)c2cc(C(=O)N3CCC3)ccc2O1)N1CCN(c2ncc(C(F)(F)F)cn2)CC1 (single isomer, unassigned) [Compound 337]"
2,< 6.00,"O=C(COC1CCOc2c1n[nH]c(=O)c2Cl)N1CCN(c2ncc(C(F)(F)F)cn2)CC1 (single isomer, unassigned) [Compound 54]"
